Assay [1] addresses human CMV DNA polymerase UL54 (Human cytomegalovirus (strain AD169) (HHV-5) (Human herpesvirus 5), UniProt P08546). Kind of assay: CMV polymerase biochemical assay (molecular beacon-based). In a few lines: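 Full-length wild-type N-terminal MBP-fusion polymerases from sf9 cells were used at 100 pM (CMV) or 625 pM (HSV) in Tris pH 7.5, 10 mM MgCl2, and preincubated with inhibitor for 30 min at RT. Reactions with 1.25 uM each dNTP, 200 nM primer and 100 nM molecular beacon ran 60 min (CMV) or 20 min (HSV) at RT. Fluorescence was read at 480/535 nm and IC50 derived.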

Assay [2] concerns Luciferase-encoding HCMV, AD169 strain. The experiment in a line: CMV Luciferase assay (cellular herpesvirus replication). In kind it is cell-based. Summed up: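 Reporter HCMV AD169 with luciferase driven by late pp28 promoter, so signal requires viral DNA replication; NN-NHDF fibroblasts in 2% FBS medium, compound (0.0159–50 or 0.00318–10 μM, 0.5% DMSO) added 1 h before infection at MOI 1. Luminescence read 72 hpi; EC50 from 4-parameter fit of control-normalized %.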

Structures are written as SMILES. pEC50, pIC50: −log10 of the molar value. Read-outs that look alike come from different tables or passages of the source.

Broadly, the pIC50 is the IC50 on a negative log10 scale, so that one unit is a factor of ten. The low end stands for a large IC50, the high end for a small IC50. A word on the pEC50: it is the negative decadic logarithm of the EC50, by convention in mol/L. Turning to `N#Cc1ccc(CNC(=O)c2ccc3n(c2=O)CCN(CC2(S(=O)(=O)C4CC4)CC2)C3=O)cc1` [Example 1, N-(4-cyanobenzyl)-2-((1-(cyclopropylsulfonyl)cyclopropyl)methyl)-1,6-dioxo-2,3,4,6-tetrahydro-1H-pyrido[1,2-a]pyrazine-7-carboxamide], the pIC50 in assay [1] is 9.10. The negative logarithm of the EC50 (pEC50) in assay [2] (Human betaherpesvirus 5, AD169, read-out: CMV-Luc Cellular EC50) is 7.63; in assay [2] (Human betaherpesvirus 5, AD169, read-out: EC50 Human herpesvirus CMV), 7.62.
